In US5646136A, “Methods of inhibiting angiogenesis and tumor growth, and treating ophthalmologic conditions with angiostatic and therapeutic steroids” (Duke University, priority 1994, dated 1997):
Entries after “also recorded” stand apart in the source; their conditions may differ.

Assays:
[1] = test system: human pancreatic HPAF cell line; assay: Growth of human pancreatic HPAF tumor in nude mice; format: in vivo
Method: The HPAF tumor cell line is resistant to virtually all chemotherapeutic agents and grows rapidly in the nude mouse. Growth inhibition of this tumor for a period of time is thus indicative of significant anti-tumor activity.
Nude mice were implanted subcutaneously with 500,000 cells of the human pancreatic HPAF cell line. See Selvan et al., Drug Design and Discovery 9: […] (1992). Treatment with 9α-fluoro-11β-hydroxy-16β-methyl-1,4-androstadien-3-one 17β-carboxylic acid steroid (20 mg/kg subcutaneously in 90 percent propylene glycol-ethanol, injected twice daily 6 days per week) was commenced the following day and continued for one month. Growth of tumor was inhibited for about 3 weeks compared to controls. After this point, rapid growth ensued.

[2] = test system: glucocorticoid activity; assay: Glucocorticoid activity (general statements)
[3] = test system: corneal neovascularization; assay: Inhibition of corneal neovascularization in cauterized rat corneas, topical application four times per day for four days; format: in vivo; design: Neovascularization (total length of blood vessels in the cornea): unit not given here; details: for Inhibition of corneal vascularization (significance, in words): applied topically; for Corneal angiogenesis score / Neovascularization (total length of blood vessels in the cornea): mean ± S.D.; for Corneal angiogenesis score: subjective score 1+ to 4+; for Percent Inhibition of neovascularization (angiogenesis score) / Percent Inhibition (total vessel length): versus vehicle
Method: (§1) The ability of etianic acids to inhibit angiogenesis was evaluated in vivo in rats. Each animal had its corneas cauterized with silver nitrate/potassium nitrate. The cauterization causes the normally avascular cornea to undergo neovascularization (anglogenesis). This animal model, refined by Proia et al., Lab. Invest. 58: 473-479 (1988) and now a well-established assay, quantifies corneal neovascularization by computerized image analysis. […] Ophthalmol. Vis. Science 30: 1588-1593 (1989), and can provide a more definitive evaluation of angiostatic activity than models using the chorioallantoic membrane in the chick egg or the rabbit eye model. See Proia et al., Exp. Eye Res. (in press--to be published in Vol. 57 in 1993).
(§2) Female rats were obtained from Zivic-Miller Laboratories, Zelienople, Pa. There were 6-8 rats included in each treatment group. Neovascularization was induced by cauterizing both corneas of each anesthetized rat; this was performed by applying the tip of a silver nitrate/potassium nitrate to the cornea for 5-7.5 seconds.
The corneal tissues were treated with steroid formulations.
Steroids were formulated in vehicle containing 10 percent Tween 20 (polyoxyethylene sorbitan monolaurate) dissolved in 0.9 percent saline with percent (by volume) 0.2M tris (hydroxymethyl)aminomethane, pH 7.4. […] All steroids were tested at a concentration of 1 percent; additionally, some formulations were also tested at 0.01 percent, 0.1 percent, and 2.5 percent. Three 10 μl drops of each concentration of steroid were applied topically to each cauterized cornea four times per day (8:00 a.m., noon, 4:00 p.m., and 8:00 p.m.).
(§3) After four days of treatment, the animals were euthanized by rapid asphyxiation in a carbon dioxide chamber. The vasculature was perfused with a mixture of 10 percent india ink/11 percent gelatin/lactated Ringer's solution. Corneal tissue was dissected and prepared as flat mounts. During dissection, the corneas were examined with a dissecting microscope, and the degree of neovascularization was graded numerically from 1+ to 4+. After dehydration with alcohols, cleaning with xylene, mounting, and drying, the area of each cornea and the length of blood vessels were determined by computerized image analysis.
Statistical evaluation of inhibition of corneal neovascularization by each concentration of drug was evaluated using Mann Whitney U Tests (one-tailed; P<0.05=significant difference). […] In all cases, however, image analysis was used to quantitatively confirm visual observations.

[4] = test system: thymus; assay: Thymus weight of rats treated topically in the corneal angiogenesis study; format: in vivo, rat
Method: as §1, §2
(§4) Steroids were formulated in vehicle containing 10 percent Tween 20 (polyoxyethylene sorbitan monolaurate) dissolved in 0.9 percent saline with percent (by volume) 0.2M tris (hydroxymethyl)aminomethane, pH 7.4. The steroids dissolved readily when the pH was adjusted to 7.0-8.0 with NaOH or KOH. All steroids were tested at a concentration of 1 percent; additionally, some formulations were also tested at 0.01 percent, 0.1 percent, and 2.5 percent. Three 10 μl drops of each concentration of steroid were applied topically to each cauterized cornea four times per day (8:00 a.m., noon, 4:00 p.m., and 8:00 p.m.).
as §3

[5] = Body weight of rats treated topically in the corneal angiogenesis study; format: in vivo, rat
Method: as §1, §2, §4
as §3, with “Corneal tissue was dissected and prepared as flat mounts. During dissection, the corneas were examined with a dissecting microscope, and the degree of neovascularization was graded numerically from 1+ to 4+.” left out

[6] = test system: corneal neovascularization; assay: Corneal angiogenesis inhibition, subcutaneous injection once/day; format: in vivo, rat
Method: as §1, §2, §3
The ability of compounds 2013, 518, and 513 to inhibit corneal angiogenesis when injected subcutaneously once/day to was assessed on rats prepared as described in Example 8. Dexamethasone was used as a positive control.

Question: For “9α-fluoro-11β-hydroxy-16β-methyl-1,4-androstadien-3-one 17β-carboxylic acid”, which “Period for which growth of tumor was inhibited compared to controls” value ([1]; 20 mg/kg subcutaneously twice daily 6 days per week, one month) is on record?
Answer: about 3 weeks

Question: With `C=C1C[C@H]2[C@@H]3C=C(C)C4=CC(=O)C=C[C@]4(C)[C@H]3CC[C@]2(C)[C@@]1(OC(C)=O)C(C)=O` [1-dehydro melegesterol acetate, 17α-acetoxy-6-methyl-16-methylene-1,4,6-pregnatriene-3,20-dione] as the compound, how does the “Glucocorticoid activity (in words)” value [2] read?
Answer: lacks glucocorticoid activity

Question: For `C[C@]12C[C@](C)(O)[C@H]3[C@@H](CCC4=CC(=O)C=C[C@@]43C)[C@@H]1CC[C@@H]2O` [11β,17β-dihydroxy-11α-methyl-1,4-androstadien-3-one, reference compound], which “Glucocorticoid activity (in words)” value [2] is on record?
Answer: anti-glucocorticoid

Question: With `C[C@]12CCC(=O)C=C1CC[C@@H]1[C@@H]2[C@@H](O)C[C@@]2(C)[C@H]1CC[C@]2(O)C(=O)O` [Compound 323, 17β-carboxyl-11β,17α-dihydroxy-4-androsten-3-one] as the compound, how does the “Inhibition of corneal vascularization (significance, in words)” value (“Inhibition … (significance, in words)” below) [3] read?
Answer: did cause significant inhibition of corneal vascularization; also recorded: significantly suppressed

Question: And the Corneal angiogenesis score ([3]; topical 0.01%)?
Answer: 1.7 ± 1.1

Question: And the Corneal angiogenesis score ([3]; topical 0.1%)?
Answer: 2.1 ± 0.5

Question: What about the Corneal angiogenesis score ([3]; topical 1.0%) of the same compound?
Answer: 1.3 ± 0.9

Question: What about the “Percent Inhibition of neovascularization (angiogenesis score)” value (shortened to “Percent Inhibition of neovascularization”) ([3]; topical 1.0%) of the same compound?
Answer: 28%

Question: With `C[C@H]1C[C@H]2[C@@H]3CCC4=CC(=O)C=C[C@]4(C)[C@@]3(F)[C@@H](O)C[C@]2(C)[C@@]1(O)C(=O)O` [Compound 513, 17β-carboxyl-11β,17α-dihydroxy-9α-fluoro-16β-methyl-1,4-androstadien-3-one] as the compound, how does the “Degree of inhibition of corneal angiogenesis compared with dexamethasone” value ([3]; 1 percent compound topical vs 0.1 percent dexamethasone sodium phosphate) read?
Answer: appeared similar to that caused by topically applied 0.1 percent dexamethasone sodium phosphate

Question: And the “Inhibition … (significance, in words)” value [3]?
Answer: did cause significant inhibition of corneal vascularization

Question: And the Corneal angiogenesis score ([3]; topical 0.01%)?
Answer: 1.8 ± 0.4

Question: What about the “Percent Inhibition of neovascularization” value ([3]; topical 0.01%) of the same compound?
Answer: 0%

Question: What about the Corneal angiogenesis score ([3]; topical 0.1%) of the same compound?
Answer: 1.1 ± 0.9

Question: What about the “Percent Inhibition of neovascularization” value ([3]; topical 0.1%) of the same compound?
Answer: 39%

Question: And the Corneal angiogenesis score ([3]; topical 1.0%)?
Answer: 0.4 ± 0.4

Question: And the “Percent Inhibition of neovascularization” value ([3]; topical 1.0%)?
Answer: 78%

Question: What about the “Change in thymus weight (in words)” value ([4]; rat, in vivo) of the same compound?
Answer: did not cause any significant change in thymus weight

Question: And the “Decrease of thymus weight from control” value ([4]; rat, in vivo)?
Answer: 45%

Question: What about the Thymus weight ([4]; rat, in vivo) of the same compound?
Answer: 0.187±0.042 gm

Question: What about the “Loss of body weight (in words)” value ([5]; rat, in vivo) of the same compound?
Answer: no significant loss of body weight

Question: What about the Neovasc. ([6]; 10 mg/kg/day subcutaneous) of the same compound?
Answer: 8.2 ± 1.1%

Question: And the “Reduction of corneal neovascularization versus vehicle” value ([6]; 10 mg/kg/day subcutaneous)?
Answer: -46.7%

Question: What about the “Growth of HPAF tumor (in words)” value ([1]; nude mice) of the same compound?
Answer: inhibits growth of the human HPAF pancreatic tumor in nude mice

Question: For `C[C@H]1C[C@@H]2[C@H]([C@@H](O)C[C@@]3(C)[C@H]2CC[C@]3(O)C(=O)O)[C@@]2(C)C=CC(=O)C=C12` [Compound 517, 17β-carboxyl-11β,17α-dihydroxy-6α-methyl-1,4-androstadien-3-one], which “Inhibition … (significance, in words)” value [3] is on record?
Answer: did not significantly inhibit corneal vascularization

Question: For `C[C@@H]1C[C@H]2[C@@H]3CCC4=CC(=O)C=C[C@]4(C)[C@@]3(F)[C@@H](O)C[C@]2(C)[C@@]1(O)C(=O)O` [Compound 518, 17β-carboxyl-11β,17α-dihydroxy-9α-fluoro-16α-methyl-1,4-androstadien-3-one], which “Inhibition … (significance, in words)” value [3] is on record?
Answer: did not significantly inhibit corneal vascularization

Question: And the Neovasc. ([6]; 10 mg/kg/day subcutaneous)?
Answer: 15.7 ± 5.8%

Question: For `C[C@]12C[C@H](O)[C@H]3[C@@H](CCC4=CC(=O)CC[C@@]43C)[C@@H]1CC[C@@H]2C(=O)O` [Compound 525, 17β-carboxyl-11β-hydroxy-4-androsten-3one], which “Inhibition … (significance, in words)” value [3] is on record?
Answer: did not significantly inhibit corneal vascularization

Question: With `C[C@]12CC[C@@H](O)CC1CC[C@@H]1[C@@H]2[C@@H](O)C[C@@]2(C)[C@H]1CC[C@]2(O)C(=O)O` (stereo partly drawn) [Compound 526, 17β-carboxyl-3α,11β,17α-trihydroxy-androstane] as the compound, how does the “Inhibition … (significance, in words)” value [3] read?
Answer: did not significantly inhibit corneal vascularization

Question: For `C[C@]12CCC(=O)C=C1CC[C@@H]1[C@@H]2C(=O)C[C@@]2(C)[C@H]1CC[C@]2(O)C(=O)O` [Compound 527, 17β-carboxyl-17α-hydroxy-4-androsten-3,11-dione], which “Inhibition … (significance, in words)” value [3] is on record?
Answer: did not significantly inhibit corneal vascularization

Question: With `C[C@@H]1C[C@H]2[C@@H]3C[C@H](F)C4=CC(=O)C=C[C@]4(C)[C@@]3(F)[C@@H](O)C[C@]2(C)[C@@]1(O)C(=O)O` [Compound 532, 6,9-difluoro-11β,17-dihydroxy-16α-methylpregna-1,4-diene-3-one-17β-carboxylic acid] as the compound, how does the “Inhibition … (significance, in words)” value [3] read?
Answer: did cause significant inhibition of corneal vascularization; also recorded: ability of this compound to inhibit corneal neovascularization; also recorded: significant differences between vehicle and Compound 532 at all concentrations

Question: And the “Neovascularization (total length of blood vessels in the cornea)” value ([3]; topical 0.01 percent)?
Answer: 355.4 ± 62.2

Question: And the “Percent Inhibition (total vessel length)” value ([3]; topical 0.01 percent)?
Answer: 12.3%

Question: What about the “Neovascularization (total length of blood vessels in the cornea)” value ([3]; topical 0.1 percent) of the same compound?
Answer: 322.0 ± 78.0

Question: And the “Percent Inhibition (total vessel length)” value ([3]; topical 0.1 percent)?
Answer: 20.6%

Question: And the “Neovascularization (total length of blood vessels in the cornea)” value ([3]; topical 1.0 percent)?
Answer: 202.2 ± 74.3

Question: And the “Percent Inhibition (total vessel length)” value ([3]; topical 1.0 percent)?
Answer: 50.1%

Question: And the “Thymus weight difference between vehicle- and drug-treated groups (in words)” value ([4]; rat, in vivo)?
Answer: no significant difference between vehicle- and drug-treated groups

Question: For `C[C@]12CC[C@H]3[C@@H](CCC4=CC(=O)CC[C@@]43C)[C@@H]1CC[C@@H]2C(=O)O` [Compound 1000, 4-androsten-3-one-17β-carboxylic acid], which “Inhibition … (significance, in words)” value [3] is on record?
Answer: did not significantly inhibit corneal vascularization

Question: Which “Reduction of thymus weight” value ([4]; topical 0.1 percent, similar experiment) does the source give for `C[C@@H]1C[C@H]2[C@@H]3CCC4=CC(=O)C=C[C@]4(C)[C@@]3(F)[C@@H](O)C[C@]2(C)[C@@]1(O)C(=O)CO` [dexamethasone, reference compound] here?
Answer: 75%

Question: And the “Body weight less than control rats” value ([5]; topical 0.1 percent, end of four days of treatment)?
Answer: 17%

Question: What about the Neovasc. ([6]; 1 mg/kg/day subcutaneous) of the same compound?
Answer: 9.3 ± 2.2%

Question: And the “Reduction of corneal neovascularization versus vehicle” value ([6]; 1 mg/kg/day subcutaneous)?
Answer: -39.6%
